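Compound exposure: 48 hours, 5 concentrations, 96-well plates. The concentration for 50% growth inhibition is given as GI50.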 Activity calls are given as the source filed them. Cut-off read from the data, not from the text of the source: active = GI50 up to about 1.1 µM and inactive = higher.

This note sets out measurements from ChEMBL document CHEMBL1201862, “PubChem BioAssay data set” (2004).

Among the test systems are SF-539; MDA-MB-435; NCI-H522; M19-MEL; SNB-19; SK-OV-3; OVCAR-4; A498; COLO 205; IGROV-1; SK-MEL-2; HT-29; MDA-N; BT-549; SK-MEL-5; K562; RPMI-8226; HCT-15; OVCAR-3; DLD-1.
Common to all, as to assay: NCI anticancer screen, dose series, 48 h

Regarding `COc1ccc2[nH]c3c4c(ccc3c2c1)C(=O)C=CC4=O`, the GI50 was 15.7 µM (inactive) in the assay on SF-539; 25.9 µM (inactive) in the assay with MDA-MB-435; 1.74 µM (inactive) in the assay on NCI-H522; 14.3 µM (inactive) in the assay with M19-MEL; 40.5 µM (inactive) in the assay on SNB-19; 43.4 µM (inactive) in the assay on SK-OV-3. The GI50 is 15 µM (inactive) in the assay on OVCAR-4; 31.3 µM (inactive) with A498; 5.3 µM (inactive) in the assay on COLO 205; 16 µM (inactive) in the assay on IGROV-1; 13.8 µM (inactive) in the assay with SK-MEL-2; 20.3 µM (inactive) in the assay with HT-29. Besides, the GI50 in the assay on MDA-N was 16.2 µM (inactive); in the assay with BT-549, 27.8 µM (inactive); with SK-MEL-5, 18.9 µM (inactive); in the assay with K562, 1.53 µM (inactive); in the assay on RPMI-8226 it was 2.08 µM (inactive); with HCT-15 it was 4.42 µM. The figures for the GI50 with OVCAR-3 and in the assay on DLD-1 were 8.36 µM (inactive) and 2.54 µM (inactive), respectively.

`C=C1C(=O)O[C@H]2C1[C@H](OC(=O)/C(C)=C\COC(C)=O)C[C@]1(CO1)[C@@H]1[C@H](O)[C@H]3O[C@@]3(C)[C@@H]12` (some centres undefined): the GI50 in the assay with SF-539 was 27 µM (inactive); with NCI-H522, 8.87 µM (inactive); in the assay on M19-MEL it was 15.7 µM (inactive); in the assay with SNB-19, > 100 µM (inactive); in the assay on SK-OV-3 it was > 67 µM (inactive); with OVCAR-4 it was 27 µM (inactive). In addition, the GI50 is 61.5 µM (inactive) in the assay with A498; 8.73 µM (inactive) in the assay on COLO 205; 24 µM (inactive) with IGROV-1; 20.7 µM (inactive) in the assay on SK-MEL-2; 19.1 µM (inactive) in the assay on HT-29; 18.6 µM (inactive) in the assay on SK-MEL-5. Moreover, the GI50 with K562 was 15.2 µM (inactive); with RPMI-8226, 13.3 µM (inactive); in the assay with HCT-15 it was 18.5 µM; in the assay with OVCAR-3 it was 18.3 µM (inactive); in the assay with DLD-1 it was 12.2 µM (inactive).

In the case of `C=C1C(=O)OC2/C=C(\C)CC(O)/C=C(/CO)CC(OC(=O)/C(C)=C/C)C12` (centres undefined), the GI50 was 29 µM (inactive) with SF-539; 13 µM (inactive) with NCI-H522; 23 µM (inactive) in the assay on M19-MEL; 114 µM (inactive) with SNB-19; 158 µM (inactive) with SK-OV-3; 117 µM (inactive) with OVCAR-4. Also, the GI50 in the assay on A498 is 26.8 µM (inactive); in the assay on COLO 205, 19.3 µM (inactive); in the assay with IGROV-1, 37.8 µM (inactive); with SK-MEL-2, 51.9 µM (inactive); with HT-29 it was 54.6 µM (inactive); with SK-MEL-5 it was 14.8 µM (inactive). The GI50 is 18 µM (inactive) in the assay with K562; 7.1 µM (inactive) in the assay with RPMI-8226; 38.4 µM with HCT-15; 29.9 µM (inactive) in the assay on OVCAR-3; 26.8 µM (inactive) in the assay with DLD-1.

Take `CCC/C(=N\NC(=O)c1cc2ccccc2cc1O)C(CC)C(=O)CCC(=O)N(Cc1ccccc1)Cc1ccccc1` (centres undefined): the GI50 is 48.1 µM (inactive) in the assay with SF-539; 39.1 µM (inactive) in the assay with NCI-H522; 18.7 µM (inactive) in the assay with M19-MEL; 27.7 µM (inactive) in the assay on SNB-19; > 100 µM (inactive) in the assay on SK-OV-3; 59 µM (inactive) with OVCAR-4. Moreover, the GI50 is 85.9 µM (inactive) with A498; 28.5 µM (inactive) in the assay with COLO 205; 34.5 µM (inactive) in the assay with IGROV-1; 28.6 µM (inactive) with SK-MEL-2; 83.2 µM (inactive) in the assay with HT-29; 23.4 µM (inactive) in the assay with SK-MEL-5. The GI50 in the assay with K562 is 26.2 µM (inactive); with RPMI-8226, 45.8 µM (inactive); in the assay with HCT-15, 38.4 µM; with OVCAR-3 it was 20.5 µM (inactive); in the assay on DLD-1 it was 58.1 µM (inactive).

For `COc1ccc(/C(Cl)=C(\C=O)c2ccc(Cl)cc2)cc1OC`, the GI50 is 9.79 µM (inactive) in the assay with SF-539; 2.47 µM (inactive) with NCI-H522; 9.12 µM (inactive) in the assay on M19-MEL; 6.73 µM (inactive) in the assay with SNB-19; 34.8 µM (inactive) in the assay with SK-OV-3; 5.12 µM (inactive) with OVCAR-4. Also, the GI50 was 23.7 µM (inactive) in the assay on A498; 3.77 µM (inactive) with COLO 205; 8.89 µM (inactive) with IGROV-1; 3.71 µM (inactive) in the assay on SK-MEL-2; 4.97 µM (inactive) in the assay on HT-29; 9.25 µM (inactive) with SK-MEL-5. For the same compound, the GI50 is 3.69 µM (inactive) in the assay with K562; 3.32 µM (inactive) in the assay with RPMI-8226; 3.29 µM with HCT-15; 5.74 µM (inactive) in the assay with OVCAR-3; 5.12 µM (inactive) with DLD-1.

Take `NC1=NS(=O)(=O)Nc2nc(-c3ccc([N+](=O)[O-])o3)[nH]c21`: the GI50 with SF-539 is 17.3 µM (inactive); in the assay on NCI-H522, 17.4 µM (inactive); in the assay on M19-MEL it was 16.6 µM (inactive); in the assay on SNB-19 it was 16.7 µM (inactive); in the assay on SK-OV-3 it was > 10 µM (inactive); with OVCAR-4, 17.1 µM (inactive). In addition, the GI50 in the assay on A498 is 76.6 µM (inactive); in the assay on COLO 205 it was > 10 µM (inactive); in the assay with IGROV-1 it was 17.2 µM (inactive); in the assay with SK-MEL-2, 16.5 µM (inactive); in the assay on HT-29, 19.4 µM (inactive); with SK-MEL-5, 18.3 µM (inactive). Besides, the GI50 in the assay on K562 was 5.38 µM (inactive); with RPMI-8226, 10.7 µM (inactive); in the assay on HCT-15 it was 19.9 µM; with OVCAR-3 it was 24.7 µM (inactive); in the assay with DLD-1, 15.8 µM (inactive).

In the case of `CCCN(CCCCC(NC(C)=O)C(=O)NCc1ccccc1)C(=O)NC` (centres undefined), the GI50 in the assay with SF-539, in the assay on NCI-H522, with M19-MEL, with SNB-19, in the assay with SK-OV-3 and in the assay on OVCAR-4 was > 100 µM (inactive) in each case. For the same compound, the GI50 in the assay with A498, in the assay with COLO 205, with IGROV-1, in the assay on SK-MEL-2, with HT-29 and in the assay with SK-MEL-5 was > 100 µM (inactive) each time. In addition, the GI50 is > 100 µM (inactive) in the assay with K562; > 100 µM (inactive) in the assay on RPMI-8226; above 100 µM with HCT-15; > 100 µM (inactive) in the assay on OVCAR-3; > 100 µM (inactive) with DLD-1.

On to `Cc1c(N)nc(C(CC(N)=O)NCC(N)C(N)=O)nc1C(=O)NC(C(=O)NC(C)C(O)C(C)C(=O)NC(C(=O)NCCc1nc(-c2nc(C(=O)NCCCNCCCCN)cs2)cs1)C(C)O)C(OC1OC(CO)C(O)C(O)C1OC1OC(CO)C(O)C(OC(N)=O)C1O)c1c[nH]cn1` (centres undefined), for which the GI50 in the assay on SF-539 was 0.0655 µM (active); with NCI-H522, 2.1 µM (inactive); in the assay with M19-MEL, > 10 µM (inactive); with SNB-19, > 10 µM (inactive); with SK-OV-3, > 10 µM (inactive); with OVCAR-4, > 6.46 µM (inactive). Further, the GI50 in the assay with A498 is > 10 µM (inactive); in the assay on COLO 205 it was > 10 µM (inactive); in the assay on IGROV-1, > 10 µM (inactive); in the assay with SK-MEL-2 it was > 10 µM (inactive); with HT-29, > 10 µM (inactive); in the assay on SK-MEL-5 it was 2.43 µM (inactive). Also, the GI50 in the assay on K562 is > 10 µM (inactive); in the assay with RPMI-8226 it was > 10 µM (inactive); with HCT-15 it was above 5.64 µM; with OVCAR-3, > 6.28 µM (inactive); in the assay on DLD-1, > 10 µM (inactive).

For the compound `CN(C)CCCNc1ccc2nnn3c4ccc([N+](=O)[O-])cc4c(=O)c1c23`, the GI50 in the assay on SF-539 is 2.13 µM (inactive); with MDA-MB-435, 1.49 µM (inactive); in the assay on NCI-H522 it was 1.63 µM (inactive); with M19-MEL, 3.65 µM (inactive); in the assay on SNB-19, 2.73 µM (inactive); in the assay with SK-OV-3 it was 1.79 µM (inactive). In addition, the GI50 with OVCAR-4 is 1.02 µM (active); in the assay with A498 it was 2.26 µM (inactive); with COLO 205, 0.834 µM (active); in the assay on IGROV-1, 1.95 µM (inactive); in the assay with SK-MEL-2 it was 3.12 µM (inactive); in the assay on HT-29 it was 0.55 µM (active). In addition, the GI50 in the assay on MDA-N is 2.09 µM (inactive); with BT-549, 5.26 µM (inactive); with SK-MEL-5, 1.7 µM (inactive); with K562, 0.589 µM (active); in the assay with RPMI-8226 it was 0.946 µM (active); in the assay on HCT-15 it was 0.916 µM. Besides, the GI50 is 2.55 µM (inactive) in the assay with OVCAR-3 and 0.931 µM (active) in the assay on DLD-1.
